# Reference: publication PMC9817970 (Cancers, 2022)
# Legend:
# [1] = system: c-KIT auto-phosphorylation in HMC1.2 cells; assay: Western blot of c-KIT signaling; assay type: cell-based, human; details: 10 μM
# Experimental: (§1) Cells were harvested and lysed using RIPA buffer containing 50 mM HEPES (pH 7.4), 1% Triton X-100, 2 mM EDTA, 150 mM NaCl, 2.5 mM NaF, 5 mM Na3VO4, and protease inhibitor cocktail tablet (Roche, # 11–878-580–001). Proteins were separated and transferred to an NC membrane. The membranes were blocked using 5% skim milk in TBS-T buffer. The p-c-KIT (Tyr703, # 3073), p-AKT (Ser473, # 9271), p-ERK (Thr202/Tyr204, # 8544), ERK (# 4695), p-PLCγ (Tyr783, # 14008), p-STAT3 (Tyr705, # 4074), and PARP (# 9542) antibodies were obtained from Cell Signaling Technologies. The β-actin (# sc-47778) and STAT3 (# sc-482) antibodies were obtained from Santa Cruz Biotechnology. AKT (A18120) antibody was purchased from ABclonal. Each primary antibody was incubated overnight at 4 °C. The secondary antibody (GenDEPOT) was incubated for 1 h at room temperature. Proteins were detected using ECL substrate.
# [2] = system: phosphorylated c-KIT (Tyr703) and downstream signaling in GIST-T1 cells; assay: Western blot of c-KIT signaling; assay type: cell-based, human
# Experimental: as §1
# c-KIT D816V Ba/F3 cells [3] = assay: Anti-proliferative activity on Ba/F3 cells; assay type: cell-based; details: Mus musculus, BaF3
# c-KIT D816V Ba/F3 cells [4] = assay: Cell cycle arrest analysis (PI flow cytometry); assay type: cell-based; details: c-KIT D816V Ba/F3, 0.5 μM, 24 h
smiles,measurement,setting,value
Cc1ccc(NC(=O)c2ccc(CN3CCN(C)CC3)c(C(F)(F)F)c2)cc1-c1cnc2sc(N)nc2c1 [6r],c-KIT auto-phosphorylation,[1],completely inhibited
same,"levels of phosphorylated c-KIT (Tyr703) and downstream mediators p-AKT, p-ERK, p-PLCγ, p-STAT3",[2],remarkably inhibited
same,GI50,c-KIT D816V Ba/F3 cells [3],1110 ± 470 nM
same,G0/G1 arrest compared with imatinib,c-KIT D816V Ba/F3 cells [4],more strongly
